Columns and labels:
MCF-7 cells = assay: Inhibition of MCF-7 cell proliferation (counting of vital cells); type: cell-based, human; settings: 10^-7 M, 10^-8 M, 10^-9 M; cell counts after 3, 6 and 9 days; compared with DHT and control
Procedure: MCF-7 cells were grown in RPMI 1640 medium at 37° C. to a cell number of about 1*10^5 cells/ml. Then, in quadruple identical MCF-7 cell samples, there were added either dihydrotestosterone (DHT) or 4-hydroxytestosterone (4-OHT), to obtain different concentrations thereof, namely 10^−7 M, 10^−8 M or 10^−9 M, and further growth of cells were determined by counting of vital cells. During the course of incubation at 37° C., cell counting were performed after 3, 6 and 9 days. For control, growth of MCF-7 cells were determined without addition of an active agent.
The results on an inhibition of MCF-7 cell proliferation are shown in FIGS. 1A, 1B and 1C for the compound concentrations of 10^−7 M, 10^−8 M and 10^−9 M of either DHT or 4-OHT, respectively, and compared with the control.

[1] = tested on: normal or mastopathic breast tissue; assay: Double blind clinical test, topical cream, patients with non-malign breast tissue; type: in vivo, human; settings: 4 patients with non-malign disease states, topical administration
Procedure: (§1) Double blind clinical tests were conducted with a group of 10 female patients. In this clinical testing, particular attention was paid to hormone receptor statuses of patients' target breast cancer tissue regarding progesterone receptor (PR) and in particular regarding estrogen receptor (ER); The cancers of the patients were assumed to be predominantly androgen receptor (AR) positive. Among this group, six patients had histologically ascertained malign breast carcinoma (C. mammae). […] In a sixth patient, the presence of a malign breast carcinoma was ascertained, but the amount of cancer tissue was too low to determine receptor status.
(§2) All 10 female patients were topically and locally treated using 4-hydroxytestosterone as active agent, by administering of a cream as described in Example 2 locally to target skin portions of the breasts. After continuing daily topical administration once a day during an administration period of 3 months, clinical investigations on therapeutic effects were performed.

[2] = tested on: malign breast carcinoma (C. mammae); assay: Double blind clinical test, topical cream, patients with malign breast carcinoma; type: in vivo, human; settings: for Clinical Remission: topical cream once a day
Procedure: as §1, §2
The results of the 6 patients having malign breast carcinoma are shown in the following Table 1, together with the receptor status determined for patient nos. 1 to 5.

C[C@]12CC[C@H]3[C@@H](CCC4=C(O)C(=O)CC[C@@]43C)[C@@H]1CC[C@@H]2O [4-hydroxytestosterone, 4,17β-dihydroxyandrost-4-ene-3-one]
inhibitory effect on MCF-7 cell proliferation (MCF-7 cells): significantly enhanced inhibitory effect
tissue reduction of normal or mastopathic appearing tissues [1]: clear tendency for tissue reduction
Clinical Remission ([2]; Patient # 1, ER 0, PR 0, Her2neu 0, 3 months): yes
Clinical Remission ([2]; Patient # 3, ER 0, PR 0, Her2neu 0, 3 months): yes
Clinical Remission ([2]; Patient # 6, receptor status not determined, 3 months): yes
treatment of ER negative cancer cells ([2]; clinical study, ER negative tumours, topical cream, 3 months): effectively treated
efficacy in shrinking cancerous tissues ([2]; clinical study, topical cream, 3 months): excellent efficacy in shrinking cancerous tissues
patients with noticeable remission of breast cancer tissues as determined by mammography ([2]; of 6 patients with malign breast carcinoma, those so far subjected to post-treatment investigation, 3 months topical): three

— patent US9114163B2, “Medication against breast cancer and related diseases” (MaBel GmbH, priority 2006, dated 2015)
